Results from PubChem BioAssay (NCI).
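Cells were grown in 96-well plates and exposed to each compound for 48 hours at five concentrations; endpoints were interpolated linearly between bracketing concentrations, or set to the highest concentration if not reached. GI50 = concentration required for 50% inhibition of growth. At the TGI there is no net growth.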

Columns and labels:
Assay in all cases: NCI anticancer screen, dose series, 48 h
[1] = test system: U251 CNS
[2] = test system: COLO 205 colon
[3] = test system: UO-31 renal
[4] = test system: HOP-92 NSCLC
[5] = test system: CCRF-CEM leukemia
[6] = test system: RXF 393 renal
[7] = test system: SF-295 CNS
[8] = test system: MDA-MB-435
[9] = test system: NCI/ADR-RES ovarian
[10] = test system: T-47D breast

Row | SMILES | TGI [1] [µM] | TGI [2] [µM] | TGI [3] [µM] | TGI [4] [µM] | TGI [5] [µM] | TGI [6] [µM] | TGI [7] [µM] | GI50 [1] [µM] | GI50 [8] [µM] | TGI [8] [µM] | GI50 [9] [µM] | TGI [9] [µM] | GI50 [2] [µM] | GI50 [4] [µM] | GI50 [5] [µM] | GI50 [6] [µM] | GI50 [10] [µM] | TGI [10] [µM] | GI50 [7] [µM] | GI50 [3] [µM]
1 | CC1CCCC(C(O)CC2CC(=O)N(c3ccccc3)C(=O)C2)C1=O (centres undefined) | > 100 | > 100 | > 100 | > 100 | > 100 | > 100 | > 100 | – | – | – | – | – | – | – | – | – | – | – | – | –
2 | CN(C)c1ccc(/C=C2\CNC/C(=C\c3ccc(N(C)C)cc3)C2=O)cc1 | 28.7 | > 100 | > 100 | 55.2 | > 100 | 44 | > 100 | – | – | – | – | – | – | – | – | – | – | – | – | –
3 | NC1=NC(c2ccccc2)N=C(Nc2ccccc2)N1 (centres undefined) | > 100 | > 100 | – | > 100 | > 100 | > 100 | > 100 | 42.1 | 34.5 | > 100 | > 100 | > 100 | 97.9 | > 100 | > 100 | > 100 | > 100 | > 100 | > 100 | –
4 | Nc1nc2c(c3ncccc13)C(c1cccc(Cl)c1)Cc1ncccc1-2 (centres undefined) | 15.4 | 3.94 | 34.9 | – | 48.6 | 4.9 | 11 | 2.17 | 0.29 | 1.17 | 0.959 | 7.5 | 1.53 | – | 2.12 | 0.908 | 3.28 | 38.5 | 2.21 | 3.98
5 | N#C/C(=C/c1cccnc1)C(=O)c1ccccc1 | > 100 | > 100 | > 100 | > 100 | > 100 | > 100 | > 100 | – | – | – | – | – | – | – | – | – | – | – | – | –
6 | COc1ncc(-c2nc3c(n2C(C)C)[C@H](c2ccc(Cl)cc2)N(c2cc(Cl)cn(C)c2=O)C3=O)c(OC)n1 | > 100 | > 100 | 88.8 | 52.6 | > 100 | – | > 100 | 40.5 | 35.3 | > 100 | 44 | > 100 | 36.9 | 3.28 | 30.9 | – | 29.5 | > 100 | 36.8 | 5.83
7 | Nc1ccn([C@H]2C[C@@H](O)[C@@H](CO)S2)c(=O)n1 | > 100 | > 100 | > 100 | > 100 | – | > 100 | > 100 | > 100 | 16.9 | > 100 | 19.6 | > 100 | > 89.8 | > 100 | – | > 39.1 | > 100 | > 100 | > 100 | 23.6
8 | COc1ccc(NC(=O)C(=O)NNC(=O)c2sc(NNC(C)=O)nc2C)c([N+](=O)[O-])c1 | > 100 | > 100 | > 100 | > 100 | 61.7 | – | > 100 | – | – | – | – | – | – | – | – | – | – | – | – | –
